Measured values as given in US20170202936A1, “Identification, Optimization And Use Of Cryptic HLA-B7 Epitopes For Immunotherapy” (VAXON BIOTECH, priority 2006, published 2017).
Entries after “also recorded” stand apart in the source; their conditions may differ. No end group written: not given here.

What was measured:
[1] = target: T1, HLA-B*0702 (Homo sapiens, UniProt P01889); experiment: Measurement of peptide relative affinity to HLA-B*0702 (T2-B7 cells, ME-1 mAb staining); format: binding; details: for RA (relative affinity for HLA-B*0702): T2-B7 cells, 16 hours 37° C., ratio of concentrations inducing 20% HLA-B*0702 expression vs reference peptide CMV265-274; for RA: class symbols, Table IV
T1 construct: expressed in transfected cells; host or cells: human T2 cells transfected with HLA-B*0702 (T2-B7)
Description: The affinity of a peptide for HLA-B*0702 can be determined by methods known in the art, for instance by the assay described by Rohrlich et al., 2003. Results are expressed as relative affinity (RA) when compared to a reference peptide. […] Peptides with RA greater than 10 are therefore considered to be cryptic peptides (or epitopes).
Measurement of Peptide Relative Affinity to HLA-B*0702. The protocol used has been described previously (Rohrlich et al., 2003). Briefly, T2-B7 cells were incubated at 37° C. for 16 hours with peptides concentrations ranging from 100 μM to 0.1 μM, and then stained with ME-1 monoclonal antibody (mAb) to quantify the surface expression of HLA-B*0702. For each peptide concentration, the HLA-B*0702 specific staining was calculated as the percentage of staining obtained with 100 μM of the reference peptide CMV265-274 (R10V; […], SEQ ID NO: 9). The relative affinity (RA) was determined as: RA=(Concentration of each peptide that induces 20% of HLA-B*0702-expression/Concentration of the reference peptide that induces 20% of HLA-B*0702 expression).

[2] = tested on: HLA-B*0702 transgenic mice; experiment: CTL induction in vivo in HLA-B*0702 transgenic mice (immunogenicity, cytotoxic assay on peptide-loaded RMA-B7 targets); set-up: key: +: means that a specific immunoresponse was generated at least one HLA-B*0702 transgenic mice; details: Table IV
Description: (§1) CTL Induction in vivo in HLA-B*0702 Transgenic Mice. Mice were injected subcutaneously with 100 μg of peptide emulsified in Incomplete Freund's Adjuvant (IFA) in the presence of 150 μg of the I-A^b restricted HBVcore128 T helper epitope ([…], SEQ ID NO: 10). After 11 days, 5×10^7 spleen cells were stimulated in vitro with peptide (10 μM). On day 6 of culture, the bulk responder populations were tested for specific cytotoxicity.
(§2) Cytotoxic assay. Targets were labelled with 100 μCi of Cr^51 for 60 min, plated in 96-well V-bottomed plates (3×10^3 cell/well in 100 μL of RPMI 1640 medium) and, when necessary, pulsed with peptides (1 μM) at 37° C. for 2 hours. Effectors were then added in the wells and incubated at 37° C. for 4 hours. Percentage of specific lysis was determined as: % Lysis=(Experimental Release−Spontaneous Release)/(Maximal Release−Spontaneous Release)×100.
(§3) HLA-B7 transgenic mice were vaccinated with the selected peptides, and eleven days later, their spleen cells were in vitro stimulated with the peptide.

[3] = tested on: HLA-B*0702 transgenic mice; experiment: as above; set-up: key to Corresponding native peptide cross-reconnaissance: + for immunogenicity or native peptide cross recognition means that the peptide induced a specific response in at least one HLA-B*0702 transgenic mouse, able to recognized the corresponding native peptide; details: for Immunogenicity: specific CTL immune response (in words) / Recognition of the native peptide by CTL generated with the optimized peptide (in words): HLA-B*0702 transgenic mice; for Corresponding native peptide cross-reconnaissance: CTL induced in HLA-B*0702 transgenic mice
Description: as §1, §2, §3

[4] = tested on: HLA-B*0702 transgenic mice; experiment: as above; set-up: key: + for immunogenicity or native peptide cross recognition means that the peptide induced a specific response in at least one HLA-B*0702 transgenic mouse, able to recognized the corresponding native peptide; details: Table V
Description: as §1, §2, §3

[5] = tested on: RMA-B7 targets; experiment: Lysis of RMA-B7 targets loaded with decreasing peptide concentrations by murine CTL; format: cell-based; details: CTL from mice immunized with TERT444A1, restimulated in vitro with native TERT444, read-out: Half maximal lysis of peptide loaded targets
Description: as §1, §2

[6] = tested on: T2-B7 targets; experiment: Generation of CTL from human PBMC of healthy donors, cytotoxicity against peptide-loaded T2-B7 targets; format: cell-based; details: one responding donor
Description: (§4) Generation of CTL from human PBMC. PBMC were collected by leukapheresis from healthy HLA-B*0702 volunteers. Dendritic cells (DC) were produced from adherent cells cultured for seven days (2×10^6 cells/ml) in the presence of 500 IU/ml GM-CSF and 500 IU/ml IL-4 (R&D Systems, Minneapolis, Minn.) in complete medium (RPMI-1640 supplemented with 10% heat inactivated human AB serum, […] L-Glutamine and antibiotics). On day seven, DC were pulsed with 10 μM peptides for 2 hrs; maturation agents Poly I:C (Sigma, Oakville, Canada) at 100 ng/ml and anti-CD40 mAb (clone G28-5, ATCC, Manassas, Va.) at 2 μg/ml were added in the culture and DCs were incubated at 37° C. overnight or up to 48 hours. Mature DC were then irradiated (3500 rads). CD8+ cells were purified by positive selection with CD8 MicroBeads (Miltenyi Biotec, Auburn, Calif.) according to the manufacturer's instructions. 2×10^5 CD8^+ cells+6×10^4 CD8^− cells were stimulated with 2×10^4 peptide pulsed DC in complete culture medium supplemented with 1000 IU/ml IL-6 and 5 IU/ml IL-12 (R&D Systems, Minneapolis, Minn.) in round-bottomed 96 well plates. […]
(§5) Cytotoxic assay. […] Percentage of specific lysis was determined as: % Lysis=(Experimental Release−Spontaneous Release)/(Maximal Release−Spontaneous Release)×100.

[7] = tested on: SK-MES-1, HBL-100, SW-480 and HSS human tumor cell lines; experiment: Cytotoxicity of peptide-induced human CTL against human tumor cell lines; format: cell-based; details: one responding donor
Description: Cells. HLA-B*0702 transfected murine RMA-B7 and human T2-B7 cells were previously described (Rohrlich et al., 2003). COS-7 and WEHI-164 clone 13 cells were provided by F. Jotereau (INSERM 463, Nantes, France). The HLA-B*0702 positive SK-MES-1 (lung cancer), HBL-100 (breast cancer), and the HLA-B*0702 negative SW-480 (colon cancer) and HSS (myeloma) cell lines were used as targets of human CTL. All cell lines were grown in FCS 10% supplemented RPMI1640 culture medium.
as §4, with “rads).” for “rads). CD8+ cells were purified by positive selection with CD8 MicroBeads (Miltenyi Biotec, Auburn, Calif.) according to the manufacturer's instructions. 2×10^5 CD8^+ cells+6×10^4 CD8^− cells were stimulated with 2×10^4 peptide pulsed DC in complete culture medium supplemented with 1000 IU/ml IL-6 and 5 IU/ml IL-12 (R&D Systems, Minneapolis, Minn.) in round-bottomed 96 well plates.”
as §5

Sequence	Affinity for HLA-B*0702 (in words) [1]	Immunogenicity [2]	RA [1]	Immunogenicity: specific CTL immune response (in words) [3]	further results
EPVTKAEML [MAGE-A121.1]	low affinity				RA (relative affinity for HLA-B*0702) [1]: >10
APRTKAEML (MAGE-121.1 A1R3 optimized peptide)		+	+ (+ = 1 < RA < 10)		
SPKANKEIL (HER-2/neu760 HLA-B*0702 restricted cryptic epitope) [Her2/neu760]				not immunogenic	
APLSLGLET (Hsp70 397 antigen peptide)	low affinity			Only the high affinity TERT4 was immunogenic	RA (relative affinity for HLA-B*0702) [1]: >10
APRMHCAVDL (EphA2)		+	++ (++ = RA < 1)		
APRSLGLEL (HSP70_397R3L9 optimized peptide) [Hsp70397R3L9]	strong affinity	+	++ (++ = RA < 1)	induced an immune response in the majority of vaccinated mice	Recognition of the native peptide by CTL generated with the optimized peptide (in words) [3]: recognized the optimized peptide but not the corresponding native peptide
APRASSPLL (a HLA-B*0702 restricted peptide)		+			
APREYVNAL (Her-2/neu)		+	+ (+ = 1 < RA < 10)		
APRMPEAAL (a HLA-B*0702 restricted peptide)		+			
APRALVETL (MAGE-A antigen peptide)		+	+ (+ = 1 < RA < 10)		
APVTKAEML (MAGE-121.1 A1 optimized peptide) [MAGE-121.1/A1]					RA (relative affinity for HLA-B*0702) [1]: >10
APRRRLGCEL (TERT antigen peptide)		+	+ (+ = 1 < RA < 10)		
APKHSDCLA (Her-2/neu246A1 optimized peptide derived from the cryptic peptide of SEQ ID NO4) [Her2/neu246A1]		+			Immunogenicity [4]: +; Corresponding native peptide cross-reconnaissance [3]: +
DPRRLVQLL [TERT444]	low affinity			Only the high affinity TERT4 was immunogenic; also recorded: not immunogenic	RA (relative affinity for HLA-B*0702) [1]: >10; EC50 [5]: 5.5 nM
APRSPLAPL (Her-2/neu1069L9 optimized peptide derived from the cryptic peptide of SEQ ID NO2) [Her2/neu1069L9]		+	++ (++ = RA < 1)		Immunogenicity [4]: +; Corresponding native peptide cross-reconnaissance [3]: +
GPKHSDCLA (HER-2/neu246 HLA-B*0702 restricted cryptic epitope) [Her2/neu246]				not immunogenic	
APRCRAVRSL [TERT4]					Cytotoxicity of human CTL against peptide-loaded T2-B7 targets [6]: killed T2-B7 targets presenting TERT4 but not T2-B7 cells presenting the irrelevant Nef peptide; Cytotoxicity of human CTL against human tumor cell lines [7]: killed the HLA-B*0702 TERT+SK-MES-1 and HBL-100 but not the HLA-B*0702-TERT+SW-480 and HSS human tumor cell lines
EPFTKAEML (MAGE-A121.2 antigen peptide)	low affinity				RA (relative affinity for HLA-B*0702) [1]: >10
YPVTNAVITV (Hsp70 137(10) antigen peptide) [Hsp70 137 (10)]	low affinity; also recorded: non binders			Only the high affinity TERT4 was immunogenic	
EPITKAEIL (MAGE-A121.4 antigen peptide)	low affinity				RA (relative affinity for HLA-B*0702) [1]: >10
APREISSMVL (HSP70_115A1R3 optimized peptide) [Hsp70115A1R3]	strong affinity	+	+ (+ = 1 < RA < 10)	induced an immune response in the majority of vaccinated mice	Recognition of the native peptide by CTL generated with the optimized peptide (in words) [3]: recognized the optimized peptide but not the corresponding native peptide
APRSPLAPS (HER-2/neu1069 HLA-B*0702 restricted cryptic epitope) [Her2/neu1069]				not immunogenic	
YPEEISSMVL (peptide of Hsp70_115) [Hsp70 115]	low affinity; also recorded: non binders			Only the high affinity TERT4 was immunogenic	
APRGVPQIEL (a HLA-B*0702 restricted peptide)		+			
APRPWTPCL (a HLA-B*0702 restricted peptide)		+	+ (+ = 1 < RA < 10)		
APRQLGREL (a HLA-B*0702 restricted peptide)		+			
APRVSIRLPL (EphA2)			++ (++ = RA < 1)		
APEEISSMVL (HSP70_115A1 optimized peptide) [Hsp70 115A1]					RA (relative affinity for HLA-B*0702) [1]: >10
APKANKEIL (Her-2/neu760A1 optimized peptide derived from the cryptic peptide of SEQ ID NO3) [Her2/neu760A1]		+			Immunogenicity [4]: +; Corresponding native peptide cross-reconnaissance [3]: +
